Measurements: patent US20220152072A1, “Selective Inhibitors Of Protein Arginine Methyltransferase 5 (PRMT5)” (Prelude Therapeutics, Incorporated, priority 2019, published 2022)

Assays:
[1] = In vivo pharmacokinetics in rat, i.v. and p.o.; settings: rat (SD, male, non-fasted), average, N=3
Protocol: In a rat (SD, male, non-fasted) non-crossover PK study, Example 47 was dosed at 1 mg/kg (DMA: 20% HPBCD=5:95, solution) via i.v. administration (N=3) and 1 mg/kg (0.5% Na CMC+0.5% Tween80, solution) via oral gauge (p.o.) (N=3).

PRMT5/MEP50 complex = PRMT5/MEP50 complex (Homo sapiens, UniProt O14744); test: Biochemical assay: PRMT5/MEP50 methylation of histone H2A with 3H-SAM, filter plate scintillation; settings: PRMT5/MEP50 5 nM, histone H2A 5 μM, SAM 1 μM
Sequence of PRMT5/MEP50 complex (O14744 whole entry, species assumed): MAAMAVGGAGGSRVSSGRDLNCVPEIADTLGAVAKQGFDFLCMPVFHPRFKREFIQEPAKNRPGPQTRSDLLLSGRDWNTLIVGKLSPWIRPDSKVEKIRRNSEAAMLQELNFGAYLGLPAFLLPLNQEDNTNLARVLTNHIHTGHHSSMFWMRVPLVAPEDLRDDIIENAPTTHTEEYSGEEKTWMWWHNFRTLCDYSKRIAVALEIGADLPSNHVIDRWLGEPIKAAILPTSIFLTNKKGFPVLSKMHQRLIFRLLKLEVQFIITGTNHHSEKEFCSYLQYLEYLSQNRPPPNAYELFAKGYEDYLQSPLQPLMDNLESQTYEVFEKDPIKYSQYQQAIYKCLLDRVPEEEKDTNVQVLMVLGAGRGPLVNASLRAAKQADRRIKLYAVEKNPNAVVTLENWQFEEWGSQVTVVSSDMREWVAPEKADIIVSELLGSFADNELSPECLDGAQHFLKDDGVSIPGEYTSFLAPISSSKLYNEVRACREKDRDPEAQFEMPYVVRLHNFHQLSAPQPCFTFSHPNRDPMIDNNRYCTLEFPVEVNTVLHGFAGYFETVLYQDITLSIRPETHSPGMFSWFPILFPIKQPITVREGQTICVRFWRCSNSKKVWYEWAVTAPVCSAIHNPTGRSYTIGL
Sequence of PRMT5/MEP50 complex (Q9BQA1 whole entry partner, species assumed): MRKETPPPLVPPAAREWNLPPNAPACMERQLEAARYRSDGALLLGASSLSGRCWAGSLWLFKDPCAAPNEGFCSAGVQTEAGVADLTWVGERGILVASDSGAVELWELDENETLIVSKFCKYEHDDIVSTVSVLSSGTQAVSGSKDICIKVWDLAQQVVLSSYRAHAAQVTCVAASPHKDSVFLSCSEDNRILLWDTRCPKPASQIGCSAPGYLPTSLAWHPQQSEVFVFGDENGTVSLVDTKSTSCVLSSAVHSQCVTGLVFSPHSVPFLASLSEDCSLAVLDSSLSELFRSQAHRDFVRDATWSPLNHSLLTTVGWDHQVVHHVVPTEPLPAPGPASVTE
Protocol: Compounds were solubilized and 3-fold diluted in 100% DMSO. […] Standard reactions were performed in a total volume of 50 μl in assay buffer, with histone H2A (5 μM final) as substrate. To this was added the PRMT5/MEP50 complex diluted to provide a final assay concentration of 5 nM and the compounds were allowed to preincubate for 15 to 20 minutes at room temperature. The reaction was initiated by adding S-[3H-methyl]-adenosyl-L-methionine (PerkinElmer) to final concentration of 1 μM. Following a 60 minutes incubation at 30° C., the reaction was stopped by adding 100 μL of 20% TCA. Each reaction was spotted onto filter plate (MultiScreen FB Filter Plate, Millipore), and washed 5 times with PBS buffer, Scintillation fluid was added to the filter plate and read in a scintillation counter. IC50 values were determined by fitting the data to the standard 4 parameters with Hill Slope using GraphPad Prism software.

FaSSIF solubility (HPLC) = settings: positive control, range
Protocol: Compounds were first dispersed in freshly prepared FaSSIF (http://biorelevant.com/site_media/upload/documents/How_to_make_FaSSIF_FeSSIF_and_FaSSGF.pdf) buffer in 1 mg/mL respectively, and the standard samples were prepared by preparing 1 mg/mL of test compounds in DMSO. The compounds were then sufficient mixed by vortex mixer for 30 sec, and agitated at 25° C. using 300 rpm form 4 hour in thermo mixer. After incubation, the prepared samples were centrifuged at 10000 rpm for 10 min to remove the undissolved solid, the resulting supernatants were applied to HPLC.
S=Csmp=Cstd*(Asmp/Astd)*(Vstd/Vsmp)
Where C is the sample concentration in μg/mL, A is the peak area, and V is the injection volume.

C[C@@]1(O)[C@@H]([C@H](O)c2ccc(Cl)c(Cl)c2)O[C@@H](n2ccc3c(N)ncnc32)[C@@H]1O [Example 47, (2R,3S,4R,5R)-5-(4-amino-7H-pyrrolo[2,3-d]pyrimidin-7-yl)-2-((R)-(3,4-dichlorophenyl) (hydroxy)methyl)-3-methyltetrahydrofuran-3,4-diol]
T1/2 ([1]; 1 mg/kg i.v.): 4.1 h
Vss ([1]; 1 mg/kg i.v.): 3.1 L/kg
blood clearance ([1]; 1 mg/kg i.v.): 8.8 mL/min/kg
dose normalized AUC ([1]; 1 mg/kg p.o.): 3246 ng·kg·h/mL/mg

C[C@@]1(O)[C@@H]([C@@H](O)c2ccc(Cl)c(Cl)c2)O[C@@H](n2ccc3c(N)ncnc32)[C@@H]1O [Example 66, (2R,3S,4R,5R)-5-(4-amino-7H-pyrrolo[2,3-d]pyrimidin-7-yl)-2-((S)-(3,4-dichlorophenyl) (hydroxy)methyl)-3-methyltetrahydrofuran-3,4-diol]
IC50 (PRMT5/MEP50 complex): 707 nM

CC(=O)CC(c1ccccc1)c1c(O)c2ccccc2oc1=O (stereo not drawn) [Warfarin]
FaSSIF solubility (positive controls) (FaSSIF solubility (HPLC)): 10 to 25 µg/mL
